We go through five compounds from ChEMBL document CHEMBL1133775, “Potent and selective indolomorphinan antagonists of the kappa-opioid receptor” (J Med Chem, 2000).

The structures appear in SMILES notation.

As usually defined, the Ki is a dissociation constant, usually derived from enzyme kinetics or from competition with a known ligand. A lower Ki goes with tighter binding.

Test [1] concerns the target Kappa-type opioid receptor (Rattus norvegicus, UniProt P34975). Kind of test: Binding affinity on HEK293 cells transiently transfected with plasmids encoding the rat Opioid receptor kappa 1. It counts as cell-based.
Another test addresses Mu-type opioid receptor (Rattus norvegicus, UniProt P33535). Briefly: Binding affinity on HEK293 cells transiently transfected with plasmids encoding the rat Opioid receptor mu 1. It counts as cell-based.
Test [2] has as its target Delta-type opioid receptor (Rattus norvegicus, UniProt P33533). Briefly: Binding affinity on HEK293 cells transiently transfected with plasmids encoding the rat Opioid receptor delta 1. It is filed as cell-based.
Test [3] has as its target T1, Opioid receptors; delta & kappa (Homo sapiens) (UniProt P41145+P41143). Briefly: Selectivity ratio, ratio of Ke value of Kappa to Delta opioid receptor (extrapolated value). It is filed as protein assay.
Test [4] can be described thus: Selectivity ratio, ratio of Ke value of mu to kappa opioid receptor.
Test [5] concerns the target T1, Opioid receptors; delta & kappa (Homo sapiens). Briefly: Selectivity ratio, ratio of binding affinity of delta to kappa opioid receptor. It counts as protein assay.
Test [6] deals with Opioid receptors; mu & kappa (Homo sapiens) (UniProt P41145+P35372). Kind of test: Selectivity ratio, ratio of binding affinity of mu to kappa opioid receptor. It is filed as protein assay.
Test [7] addresses Kappa-type opioid receptor (Cavia porcellus) (UniProt P41144). Briefly: Opioid receptor kappa 1 Antagonism (100 nM) is expressed as (Ke = [antagonist] / (IC50 ratio -1). It is filed as functional.
Test [8] deals with Delta-type opioid receptor (Mus musculus) (UniProt P32300). Kind of test: Opioid receptor delta 1 Antagonism (100 nM) is expressed as (Ke = [antagonist] / (IC50 ratio -1). It is filed as functional.
Test [9] concerns the target Mu-type opioid receptor (Cavia porcellus) (UniProt P97266). Briefly: Opioid receptor mu 1 Antagonism (100 nM) is expressed as (Ke = [antagonist] / (IC50 ratio -1). It counts as functional.
For test [10], the target named is Kappa-type opioid receptor (Cavia porcellus) (UniProt P41144). Briefly: Ratio of the IC50 of Kappa receptor agonist, ethylketazocine in the presence of compound in GPI divided by the control IC50. It is filed as functional.
For test [11], the target named is Delta-type opioid receptor (Mus musculus) (UniProt P32300). Briefly: Ratio of the IC50 of delta receptor agonist, [D-Ala-2, D-Leu5]-enkephalin in the presence of compound in MVD divided by the control IC50. It counts as functional.
For test [12], the target named is T1, Opioid receptors; delta & kappa (Homo sapiens). Briefly: Selectivity ratio, ratio of Ke value of delta to kappa opioid receptor. It counts as protein assay.
Test [13] has as its target Mu-type opioid receptor (Cavia porcellus) (UniProt P97266). Kind of test: Ratio of the IC50 of mu receptor agonist, Morphine in the presence of compound in GPI divided by the control IC50. It counts as functional.
Test [14] deals with T1, Opioid receptors; delta & kappa (Homo sapiens). Briefly: Selectivity ratio, ratio of Ke value of kappa to delta opioid receptor (extrapolated value). It counts as protein assay.

Chain of Mu-type opioid receptor (Cavia porcellus) (P97266 whole entry): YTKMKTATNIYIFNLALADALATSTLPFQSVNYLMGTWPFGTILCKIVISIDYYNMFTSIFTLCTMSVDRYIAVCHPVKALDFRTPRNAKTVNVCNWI
Chain of Kappa-type opioid receptor (Cavia porcellus) (P41144 whole entry): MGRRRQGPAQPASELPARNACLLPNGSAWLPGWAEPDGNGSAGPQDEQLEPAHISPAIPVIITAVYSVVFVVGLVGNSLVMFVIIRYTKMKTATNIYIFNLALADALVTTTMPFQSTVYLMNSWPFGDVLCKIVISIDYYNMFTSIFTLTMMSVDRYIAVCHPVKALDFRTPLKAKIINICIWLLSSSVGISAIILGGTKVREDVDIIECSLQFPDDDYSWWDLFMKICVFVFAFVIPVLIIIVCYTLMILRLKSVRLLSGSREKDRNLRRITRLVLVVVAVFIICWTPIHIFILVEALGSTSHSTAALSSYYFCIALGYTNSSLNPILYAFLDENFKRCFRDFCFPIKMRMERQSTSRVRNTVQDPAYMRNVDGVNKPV
Chain of Delta-type opioid receptor (Mus musculus) (P32300 whole entry): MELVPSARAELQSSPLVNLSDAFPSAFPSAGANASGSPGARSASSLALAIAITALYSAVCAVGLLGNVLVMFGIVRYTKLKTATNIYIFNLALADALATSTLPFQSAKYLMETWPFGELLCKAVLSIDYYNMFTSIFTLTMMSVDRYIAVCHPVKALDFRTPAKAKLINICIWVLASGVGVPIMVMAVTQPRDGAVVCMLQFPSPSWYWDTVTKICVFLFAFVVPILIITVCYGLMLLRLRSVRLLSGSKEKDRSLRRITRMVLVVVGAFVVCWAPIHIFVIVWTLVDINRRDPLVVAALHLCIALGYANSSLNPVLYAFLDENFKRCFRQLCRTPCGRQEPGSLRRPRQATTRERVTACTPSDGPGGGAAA
T1 sequence (P41143 whole entry, looked up): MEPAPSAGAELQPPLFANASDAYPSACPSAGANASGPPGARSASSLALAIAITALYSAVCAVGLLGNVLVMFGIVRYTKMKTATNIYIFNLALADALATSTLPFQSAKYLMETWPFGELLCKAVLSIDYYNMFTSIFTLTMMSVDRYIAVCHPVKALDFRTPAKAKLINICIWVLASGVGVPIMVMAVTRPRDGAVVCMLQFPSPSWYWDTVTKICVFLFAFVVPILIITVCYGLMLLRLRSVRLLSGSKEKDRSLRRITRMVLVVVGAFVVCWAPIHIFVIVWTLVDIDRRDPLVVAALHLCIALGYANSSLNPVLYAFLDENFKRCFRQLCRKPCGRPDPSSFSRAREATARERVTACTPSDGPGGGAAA
T1 sequence (P41145 whole entry, looked up): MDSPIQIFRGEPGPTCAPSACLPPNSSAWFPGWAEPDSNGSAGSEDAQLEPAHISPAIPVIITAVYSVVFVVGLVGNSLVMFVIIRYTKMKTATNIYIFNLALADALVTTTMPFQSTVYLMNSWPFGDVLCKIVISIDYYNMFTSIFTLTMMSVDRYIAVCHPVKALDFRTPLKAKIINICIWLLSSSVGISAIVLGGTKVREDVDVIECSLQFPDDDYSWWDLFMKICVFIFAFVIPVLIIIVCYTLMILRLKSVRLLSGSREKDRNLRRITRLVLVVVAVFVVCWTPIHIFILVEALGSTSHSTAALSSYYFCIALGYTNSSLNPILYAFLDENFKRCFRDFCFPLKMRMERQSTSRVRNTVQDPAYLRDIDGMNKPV
Chain of Kappa-type opioid receptor (P34975 whole entry): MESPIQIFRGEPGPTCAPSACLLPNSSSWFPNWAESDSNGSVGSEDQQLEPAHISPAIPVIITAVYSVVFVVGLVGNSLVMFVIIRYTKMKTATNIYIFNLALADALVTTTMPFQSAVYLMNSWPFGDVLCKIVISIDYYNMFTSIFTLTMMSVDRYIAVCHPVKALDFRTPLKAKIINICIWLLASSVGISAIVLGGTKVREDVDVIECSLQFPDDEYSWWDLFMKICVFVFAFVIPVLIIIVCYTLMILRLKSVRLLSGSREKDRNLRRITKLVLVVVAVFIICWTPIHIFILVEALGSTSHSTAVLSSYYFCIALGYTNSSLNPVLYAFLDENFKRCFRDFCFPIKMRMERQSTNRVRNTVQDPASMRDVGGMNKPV
Chain of Mu-type opioid receptor (P33535 whole entry): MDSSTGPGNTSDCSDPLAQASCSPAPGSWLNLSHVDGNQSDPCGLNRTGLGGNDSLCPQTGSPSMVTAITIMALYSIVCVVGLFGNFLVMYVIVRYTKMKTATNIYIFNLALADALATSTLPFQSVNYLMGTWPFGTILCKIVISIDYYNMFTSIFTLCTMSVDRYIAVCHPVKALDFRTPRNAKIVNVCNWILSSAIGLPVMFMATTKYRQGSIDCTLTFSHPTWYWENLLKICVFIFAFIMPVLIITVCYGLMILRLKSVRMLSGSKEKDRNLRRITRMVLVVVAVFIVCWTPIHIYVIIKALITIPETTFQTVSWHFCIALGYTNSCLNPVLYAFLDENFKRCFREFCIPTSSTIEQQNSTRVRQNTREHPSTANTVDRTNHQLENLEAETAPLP
Chain of Delta-type opioid receptor (P33533 whole entry): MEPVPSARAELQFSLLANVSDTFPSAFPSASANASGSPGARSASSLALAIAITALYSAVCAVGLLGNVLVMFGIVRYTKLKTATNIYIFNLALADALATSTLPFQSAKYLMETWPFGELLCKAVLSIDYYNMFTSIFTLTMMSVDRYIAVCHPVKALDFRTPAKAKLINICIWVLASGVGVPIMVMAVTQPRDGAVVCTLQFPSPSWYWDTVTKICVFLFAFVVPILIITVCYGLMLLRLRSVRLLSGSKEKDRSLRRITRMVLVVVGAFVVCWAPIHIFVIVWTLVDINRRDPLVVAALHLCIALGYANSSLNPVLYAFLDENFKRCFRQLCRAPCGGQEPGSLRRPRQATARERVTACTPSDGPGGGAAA
Chain of Opioid receptors; mu & kappa (Homo sapiens) (P35372 whole entry, looked up): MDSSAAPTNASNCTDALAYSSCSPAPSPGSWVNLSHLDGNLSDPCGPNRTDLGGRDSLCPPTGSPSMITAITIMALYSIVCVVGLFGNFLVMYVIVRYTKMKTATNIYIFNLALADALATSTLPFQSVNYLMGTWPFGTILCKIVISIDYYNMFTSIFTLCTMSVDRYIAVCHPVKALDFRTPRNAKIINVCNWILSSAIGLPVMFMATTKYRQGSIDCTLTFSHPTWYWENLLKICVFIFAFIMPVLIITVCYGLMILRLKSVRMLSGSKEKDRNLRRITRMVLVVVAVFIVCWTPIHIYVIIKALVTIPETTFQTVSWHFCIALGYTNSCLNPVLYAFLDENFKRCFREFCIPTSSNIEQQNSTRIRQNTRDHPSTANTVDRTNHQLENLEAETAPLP
Chain of Opioid receptors; mu & kappa (Homo sapiens) (P41145 whole entry, looked up): as the sequence (P41145 whole entry, looked up) above

Regarding `N=C(N)Nc1ccc2[nH]c3c(c2c1)C[C@@]1(O)[C@H]2Cc4ccc(O)c5c4[C@@]1(CCN2CC1CC1)[C@H]3O5` [GUANIDINONALTRINDOLE], the Ki in [1] is 0.18 nM; on Mu-type opioid receptor it was 22.5 nM; in [2] it was 46.2 nM. The Ratio is 366 in test [3], 193 in test [4], 257 in test [5] and 125 in [6].
In the case of `NCc1ccc2[nH]c3c(c2c1)C[C@@]1(O)C2Cc4ccc(O)c5c4[C@@]1(CCN2CC1CC1)[C@H]3O5`, the Ke in test [7] turned out to be 34 nM; in [8], 18 nM; in [9] it was 61 nM. The IC50 ratio in test [10] turned out to be 3.9; in [11], 6.4; in [13] it was 2.6. The Ratio amounted to 0.5 in test [12] and 1.8 in test [4].
`C[N+](C)(C)CCc1ccc2[nH]c3c(c2c1)C[C@@]1(O)C2Cc4ccc(O)c5c4[C@@]1(CCN2CC1CC1)[C@H]3O5`: the Ke amounted to 0.4 nM in test [7] and 5.7 nM in test [9]. The results for the IC50 ratio in [10], in test [11] and in [13] were 48, 2.5 and 18.5, respectively. The Ratio in test [14] is 96; in [4], 13.
For the compound `N=C(N)NCCc1ccc2[nH]c3c(c2c1)C[C@@]1(O)[C@H]2Cc4ccc(O)c5c4[C@@]1(CCN2CC1CC1)[C@H]3O5`, the values for the Ke in test [7], in test [8] and in test [9] were 1.7 nM, 3.4 nM and 12 nM, respectively. Moreover, the Ki in test [1] was 0.507 nM; at Mu-type opioid receptor, 33.4 nM; in test [2], 10.7 nM. Besides, the IC50 ratio in test [10] came out at 59.8; in test [11] it was 30.1; in [13], 9.1. Further, the Ratio amounted to 2 in test [12], 7.3 in test [4], 21 in [5] and 66 in test [6].
For `CSC(=N)Nc1ccc2[nH]c3c(c2c1)C[C@@]1(O)C2Cc4ccc(O)c5c4[C@@]1(CCN2CC1CC1)[C@H]3O5`, the values for the Ke in test [7] and in [9] were 0.5 nM and 16 nM, respectively. For the same compound, the IC50 ratio in [10] is 43.6; in [11], 1.9; in test [13] it was 7.4. Besides, the figures for the Ratio in test [3] and in [4] were 115 and 33, respectively.
